This is an account of results in ChEMBL document CHEMBL1129081, “New neplanocin analogues. 7. Synthesis and antiviral activity of 2-halo derivatives of neplanocin A” (J Med Chem, 1996).

≈ marks a conversion by molar mass, not a printed value.

For one experiment, the system named is Mumps virus. The experiment is described as follows: Inhibitory concentration required to reduce virus Plaque formation (mumps). To be noted: Mumps orthorubulavirus. The experiment is classed as functional, organism-based.
In experiment [1] the test system is Vesicular stomatitis virus. The experiment is described as follows: Inhibitory concentration required to reduce virus -induced cytopathicity (VSV). The experiment is classed as functional, organism-based. In general terms: Damage to the host cells serves as the signal in cytopathic effect assays.
The test system of the next experiment is Measles morbillivirus. Put plainly: Inhibitory concentration required to reduce virus Plaque formation (measles). In kind it is functional, organism-based.
Experiment [2] deals with Vero. Put plainly: Cytotoxic concentration required to reduce the number of Vero cells by 50%. The following applies: Chlorocebus sabaeus. In kind it is cell-based.
The subject of experiment [3] is E6SM. Put plainly: Antiviral and cytostatic effects against TK HSV-1( B2006) virus expressed in E6SM cells. To be noted: Homo sapiens. The experiment is classed as functional, cell-based.
For experiment [4], the system named is HEL. Put plainly: Antiviral and cytostatic effects againstTK-VZV virus expressed in HEL cells. In kind it is functional, cell-based. The following applies: Homo sapiens.
For experiment [5], the system named is Vero. Put plainly: Antiviral and cytostatic effects against Reo-1 virus expressed in Vero cells. The experiment is classed as functional, cell-based. The following applies: Chlorocebus sabaeus.
Another experiment relates to MOLT-4. Put plainly: Antiviral and cytostatic effects againstTK-VZV virus expressed in MOLT-4 cells. The experiment is classed as functional, cell-based. To be noted: Homo sapiens.
The test system of experiment [6] is HEL. Put plainly: Antiviral and cytostatic effects against VZV(Oka,YS) virus expressed in HEL cells. The experiment is classed as functional, cell-based. The following applies: Homo sapiens.
The test system of experiment [7] is HeLa. The experiment is described as follows: Antiviral and cytostatic effects against Coxsackie B4 virus expressed in HeLa cells. The experiment is classed as functional, cell-based. To be noted: Homo sapiens.
For experiment [8], the system named is Vero. Put plainly: Antiviral and cytostatic effects against Sindbis virus expressed in Vero cells. In kind it is functional, cell-based. To be noted: Chlorocebus sabaeus.
For experiment [9], the system named is E6SM. The experiment is described as follows: Antiviral and cytostatic effects against VV virus expressed in E6SM cells. In kind it is functional, cell-based. To be noted: Homo sapiens.
Experiment [10] deals with HeLa. The experiment is described as follows: Antiviral and cytostatic effects against VSV virus expressed in Hela cells. In kind it is functional, cell-based. The following applies: Homo sapiens.
Experiment [11] relates to Vero. The experiment is described as follows: Antiviral and cytostatic effects againstTK-VZV virus expressed in Vero cells. To be noted: Chlorocebus sabaeus. In kind it is functional, cell-based.
For the next experiment, the system named is L1210. The experiment is described as follows: Antiviral and cytostatic effects againstTK-VZV virus expressed in L1210 cells. The following applies: Mus musculus. In kind it is functional, cell-based.
Experiment [12] concerns E6SM. The experiment is described as follows: Antiviral and cytostatic effects against VSV virus expressed in E6SM cells. In kind it is functional, cell-based. The following applies: Homo sapiens.
Experiment [13] concerns E6SM. Put plainly: Antiviral and cytostatic effects againstTK-VZV virus expressed in E6SM cells. The experiment is classed as functional, cell-based. To be noted: Homo sapiens.
The subject of experiment [14] is HeLa. Put plainly: Antiviral and cytostatic effects againstTK-VZV virus expressed in Hela cells. In kind it is functional, cell-based. The following applies: Homo sapiens.
In a further experiment the test system is FM3A. Put plainly: Antiviral and cytostatic effects againstTK-VZV virus expressed in FM3A cells. The experiment is classed as functional, cell-based. To be noted: Mus musculus.
Experiment [15] deals with Vero. Put plainly: Antiviral and cytostatic effects against Tacaribe virus expressed in Vero cells. The experiment is classed as functional, cell-based. The following applies: Chlorocebus sabaeus.
In experiment [16] the test system is HEL. The experiment is described as follows: Antiviral and cytostatic effects against TK-VZV virus expressed in HEL cells. In kind it is functional, cell-based. The following applies: Homo sapiens.
Experiment [17] has as its system E6SM. The experiment is described as follows: Antiviral and cytostatic effects against Hsv-2(G) virus expressed in E6SM cells. In kind it is functional, cell-based. The following applies: Homo sapiens.
The next experiment has as its system CCRF-CEM. The experiment is described as follows: Antiviral and cytostatic effects againstTK-VZV virus expressed in CEM cells. The experiment is classed as functional, cell-based. The following applies: Homo sapiens.
Experiment [18] has as its system Vero. Put plainly: Antiviral and cytostatic effects against Parainfluenza-3 virus expressed in Vero cells. The experiment is classed as functional, cell-based. The following applies: Chlorocebus sabaeus.
In experiment [19] the test system is HeLa. Put plainly: Antiviral and cytostatic effects against Polio-1 virus expressed in Hela cells. The experiment is classed as functional, cell-based. The following applies: Homo sapiens.
Experiment [20] has as its system E6SM. The experiment is described as follows: Antiviral and cytostatic effects against CMV (Davis) virus expressed in […]. In kind it is functional, cell-based. To be noted: Homo sapiens.
In experiment [21] the test system is E6SM. Put plainly: Antiviral and cytostatic effects against Hsv-1(KOS) virus expressed in E6SM cells. The experiment is classed as functional, cell-based. To be noted: Homo sapiens.
For experiment [22], the system named is HEL. The experiment is described as follows: Antiviral and cytostatic effects against CMV (AD-169) virus expressed in HEL cells. To be noted: Homo sapiens. In kind it is functional, cell-based.
Experiment [23] deals with Vero. Put plainly: Antiviral and cytostatic effects against forest virus expressed in Vero cells. The following applies: Chlorocebus sabaeus. In kind it is functional, cell-based.
Experiment [24] concerns Vero. The experiment is described as follows: Antiviral and cytostatic effects against Junin virus expressed in Vero cells. The experiment is classed as functional, cell-based. The following applies: Chlorocebus sabaeus.

`C[C@H](O)C1=C[C@@H](n2cnc3c(N)ncnc32)[C@H](O)[C@@H]1O`: the IC50 (commonly the concentration that gives 50% inhibition) in the experiment with Mumps virus was 0.19 µg/mL (≈ 0.685 µM); in experiment [1], 0.25 µg/mL (≈ 0.902 µM); in the experiment on Measles morbillivirus, 0.09 µg/mL (≈ 0.325 µM); with Vero [2], over 200 µg/mL.
As for `C[C@H](O)C1=C[C@@H](n2cnc3c(N)nc(F)nc32)[C@H](O)[C@@H]1O`, the IC50 was 7 µg/mL (≈ 23.7 µM) in the experiment with Mumps virus, 16 µg/mL (≈ 54.2 µM) in experiment [1], over 25 µg/mL with Measles morbillivirus and over 200 µg/mL with Vero [2].
As for `Nc1nc(Cl)nc2c1ncn2[C@@H]1C=C(CO)[C@@H](O)[C@H]1O`, the IC50 with Mumps virus was over 25 µg/mL; in experiment [1], 63 µg/mL (≈ 212 µM); in the experiment on Measles morbillivirus, 29 µg/mL (≈ 97.4 µM); in the experiment with Vero [2], over 200 µg/mL.
On the same counts, the results for `Nc1ncnc2c1ncn2[C@@H]1C=C[C@@H](O)[C@H]1O` are 1.1 µg/mL (≈ 4.72 µM), 1 µg/mL (≈ 4.29 µM), 0.47 µg/mL (≈ 2.02 µM) and over 200 µg/mL.
Regarding `Nc1nc(Cl)nc2c1ncn2[C@@H]1C=C[C@@H](O)[C@H]1O`, the values for the IC50 in the experiment on Mumps virus, in the experiment on Measles morbillivirus and in the experiment with Vero [2] were over 25 µg/mL, over 25 µg/mL and over 200 µg/mL, respectively.
With `Nc1nc(F)nc2c1ncn2[C@@H]1C=C[C@@H](O)[C@H]1O`, the results for the IC50 in the experiment on Mumps virus, with Measles morbillivirus and in the experiment on Vero [2] were 21 µg/mL (≈ 83.6 µM), over 25 µg/mL and over 200 µg/mL, respectively.
Regarding `Nc1nc(F)nc2c1ncn2[C@@H]1C=C(CO)[C@@H](O)[C@H]1O`, the IC50 is over 40 µg/mL with E6SM [3]; 1.2 µg/mL (≈ 4.27 µM) in the experiment on Mumps virus; 2 µg/mL (≈ 7.11 µM) in the experiment with HEL [4]; 0.7 µg/mL (≈ 2.49 µM) in the experiment with Vero [5]; 0.5 µg/mL (≈ 1.78 µM) with MOLT-4; 0.25 µg/mL (≈ 0.889 µM) in experiment [1]. Further, the IC50 in the experiment on HEL [6] was 10 µg/mL (≈ 35.6 µM); in the experiment with HeLa [7] it was over 100 µg/mL; in the experiment with Vero [8], 1 µg/mL (≈ 3.56 µM); in the experiment on E6SM [9], 0.1 µg/mL (≈ 0.356 µM); in the experiment on Measles morbillivirus, 0.03 µg/mL (≈ 0.107 µM); with Vero [2], over 200 µg/mL. Also, the IC50 in the experiment on HeLa [10] came out at 0.4 µg/mL (≈ 1.42 µM); with Vero [11], 100 µg/mL (≈ 356 µM); in the experiment with L1210, 0.25 µg/mL (≈ 0.889 µM); with E6SM [12] it was 1 µg/mL (≈ 3.56 µM); in the experiment on E6SM [13], 40 µg/mL (≈ 142 µM); in the experiment with HeLa [14], 100 µg/mL (≈ 356 µM). In addition, the IC50 in the experiment with FM3A was 0.19 µg/mL (≈ 0.676 µM); in the experiment with Vero [15], 0.7 µg/mL (≈ 2.49 µM); in the experiment with HEL [16], 7 µg/mL (≈ 24.9 µM); with E6SM [17], over 40 µg/mL; with CCRF-CEM it was 1.75 µg/mL (≈ 6.22 µM); in the experiment on Vero [18], 2 µg/mL (≈ 7.11 µM). For the same compound, the IC50 in the experiment with HeLa [19] is over 40 µg/mL; in the experiment on E6SM [20] it was over 5 µg/mL; in the experiment with E6SM [21], over 40 µg/mL; in the experiment with HEL [22], 1.5 µg/mL (≈ 5.33 µM); in the experiment with Vero [23], over 100 µg/mL; in the experiment with Vero [24], 0.6 µg/mL (≈ 2.13 µM).
Regarding `Nc1ncnc2c1ncn2[C@@H]1C=C(CO)[C@@H](O)[C@H]1O` [NEOPLANOCIN A], the IC50 is 20 µg/mL (≈ 76 µM) with E6SM [3]; 0.11 µg/mL (≈ 0.418 µM) in the experiment on Mumps virus; over 20 µg/mL in the experiment with HEL [4]; 0.7 µg/mL (≈ 2.66 µM) in the experiment on Vero [5]; 2.34 µg/mL (≈ 8.89 µM) in the experiment on MOLT-4; 0.25 µg/mL (≈ 0.95 µM) in experiment [1]. Besides, the IC50 is 10 µg/mL (≈ 38 µM) in the experiment with HEL [6]; over 40 µg/mL with HeLa [7]; 7 µg/mL (≈ 26.6 µM) with Vero [8]; 0.7 µg/mL (≈ 2.66 µM) in the experiment with E6SM [9]; 0.1 µg/mL (≈ 0.38 µM) in the experiment on Measles morbillivirus; 155 µg/mL (≈ 589 µM) with Vero [2]. Besides, the IC50 came to 2 µg/mL (≈ 7.6 µM) in the experiment on HeLa [10]; 40 µg/mL (≈ 152 µM) in the experiment with Vero [11]; 0.027 µg/mL (≈ 0.103 µM) with L1210; 7 µg/mL (≈ 26.6 µM) with E6SM [12]; 70 µg/mL (≈ 266 µM) in the experiment on E6SM [13]; 40 µg/mL (≈ 152 µM) with HeLa [14]. Also, the IC50 was 0.022 µg/mL (≈ 0.0836 µM) in the experiment with FM3A; 1.5 µg/mL (≈ 5.7 µM) in the experiment on Vero [15]; 9 µg/mL (≈ 34.2 µM) in the experiment on HEL [16]; over 40 µg/mL with E6SM [17]; 1.12 µg/mL (≈ 4.25 µM) in the experiment with CCRF-CEM; 2 µg/mL (≈ 7.6 µM) in the experiment with Vero [18]. Besides, the IC50 is over 40 µg/mL in the experiment with HeLa [19]; 0.4 µg/mL (≈ 1.52 µM) in the experiment on E6SM [20]; 70 µg/mL (≈ 266 µM) in the experiment on E6SM [21]; over 40 µg/mL in the experiment with Vero [23]; 0.5 µg/mL (≈ 1.9 µM) in the experiment with Vero [24].
